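Five compound concentrations were applied to cells in 96-well plates for 48 hours; endpoints were derived by simple linear interpolation of the resulting dose-response curve. GI50 marks 50% less growth. TGI: total growth inhibition.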
Legend:
Test in all cases: NCI anticancer screen, dose series, 48 h
U251 CNS = tested on: U251 CNS
SF-268 CNS = tested on: SF-268 CNS
OVCAR-4 ovarian = tested on: OVCAR-4 ovarian
M14 melanoma = tested on: M14 melanoma
OVCAR-8 ovarian = tested on: OVCAR-8 ovarian
COLO 205 colon = tested on: COLO 205 colon
HS 578T breast = tested on: HS 578T breast
SF-539 CNS = tested on: SF-539 CNS
MALME-3M melanoma = tested on: MALME-3M melanoma
NCI-H226 lung = tested on: NCI-H226 lung

| SMILES | GI50 (U251 CNS) | TGI (U251 CNS) | GI50 (SF-268 CNS) | TGI (SF-268 CNS) | GI50 (OVCAR-4 ovarian) | TGI (OVCAR-4 ovarian) | GI50 (M14 melanoma) | TGI (M14 melanoma) | GI50 (OVCAR-8 ovarian) | TGI (OVCAR-8 ovarian) | GI50 (COLO 205 colon) | TGI (COLO 205 colon) | GI50 (HS 578T breast) | TGI (HS 578T breast) | TGI (SF-539 CNS) | TGI (MALME-3M melanoma) | GI50 (NCI-H226 lung) | TGI (NCI-H226 lung) | GI50 (SF-539 CNS) | GI50 (MALME-3M melanoma) |
| --- | --- | --- | --- | --- | --- | --- | --- | --- | --- | --- | --- | --- | --- | --- | --- | --- | --- | --- | --- | --- |
| COc1cc(NC(C)CCCN)c2ncccc2c1Sc1ccc(Cl)cc1 (stereo not drawn) | 1.51 µM | 2.83 µM | 2.43 µM | 6.61 µM | 1.72 µM | 3.1 µM | 1.77 µM | 3.34 µM | 1.64 µM | 3 µM | 1.67 µM | 3.03 µM | 1.67 µM | 3.85 µM | – | – | – | – | – | – |
| Oc1c2c(c(O)c3ccccc13)C1(N=N2)c2ccccc2Oc2ccccc21 | – | 16.4 µM | – | 25.5 µM | – | – | – | 26.1 µM | – | 11.1 µM | – | 28 µM | – | 41.5 µM | 20.2 µM | 9.28 µM | – | – | – | – |
| FC(F)(F)c1[nH]ncc1-c1nc2ccc3[nH]ncc3c2c2c1CCCC2 | 2.56 µM | 7.5 µM | 1.73 µM | 4.72 µM | 2.82 µM | 11.4 µM | 1.09 µM | 2.9 µM | 2.63 µM | 11.9 µM | 1.54 µM | 4.08 µM | – | – | 2.83 µM | 3.82 µM | 2.26 µM | 12.4 µM | 1.2 µM | 0.927 µM |
| COc1cc2c(cc1OC)[C@@H]([C@H](O)c1ccccc1)NCC2 | – | > 100 µM | – | > 100 µM | – | > 100 µM | – | > 100 µM | – | > 100 µM | – | > 100 µM | – | – | > 100 µM | > 100 µM | – | > 100 µM | – | – |
| Cc1ccc2c(CC(=O)O)cc(=O)oc2c1 | – | > 100 µM | – | > 100 µM | – | > 100 µM | – | > 100 µM | – | > 100 µM | – | > 100 µM | – | – | > 100 µM | > 100 µM | – | > 100 µM | – | – |
| O=C(CC1C(=O)Nc2ccccc2S1(=O)=O)Nc1cccc(Cl)c1 (stereo not drawn) | – | 26.4 µM | – | 30.1 µM | – | 36.6 µM | – | 42.1 µM | – | 33.1 µM | – | – | – | – | 22.8 µM | 63.7 µM | – | 35.8 µM | – | – |
| CN(C)CCNc1nc2ccccc2c2occc12 | 45.3 µM | > 100 µM | 46.6 µM | > 100 µM | 26.3 µM | 82.2 µM | 28.8 µM | 68.5 µM | 62.3 µM | > 100 µM | 25.2 µM | > 100 µM | 99.4 µM | > 100 µM | 83.6 µM | – | – | – | 35.9 µM | – |
| O=C1c2c(c3c4ccccc4[nH]c3c3[nH]c4ccccc4c23)C(=O)N1Cc1ccccc1 | – | 6.34 µM | – | 14 µM | – | 10.5 µM | – | 10.9 µM | – | 13.8 µM | – | 4.66 µM | – | – | 6.26 µM | 11.9 µM | – | 6.1 µM | – | – |
| CCN(CC)CCC(=O)/C=C/c1ccc(C)cc1 | – | 22.3 µM | – | 30.4 µM | – | 32.7 µM | – | 26.8 µM | – | 32.4 µM | – | 16.8 µM | – | – | 19.1 µM | 34 µM | – | 31.9 µM | – | – |
| CSc1nc(N)c2c(n1)NC(c1ccccc1)C1CCc3ccccc3C1=N2 (stereo not drawn) | > 100 µM | > 100 µM | > 100 µM | > 100 µM | 4.38 µM | > 100 µM | 11.9 µM | > 100 µM | 5.39 µM | > 100 µM | 25.8 µM | > 100 µM | – | – | > 100 µM | > 100 µM | 42.3 µM | > 100 µM | > 100 µM | > 100 µM |
| Cc1cn2c(/C=N/N=C(N)N)c(-c3ccsc3)nc2s1 | 2.08 µM | 5.95 µM | 14.6 µM | 44.3 µM | – | – | 11.5 µM | 37.3 µM | 16.2 µM | 34.4 µM | 3.18 µM | 15 µM | 13 µM | 37.8 µM | – | – | 15.5 µM | 31.7 µM | – | – |
| COC(=O)C(=O)C(CC(=O)Nc1cccc(C(F)(F)F)c1)C(=O)OC (stereo not drawn) | – | > 100 µM | – | > 100 µM | – | > 100 µM | – | > 100 µM | – | > 100 µM | – | > 100 µM | – | – | > 100 µM | > 100 µM | – | > 100 µM | – | – |
| O=C1CCC2(c3ccccc3)Nc3ccc(Cl)cc3N12 (stereo not drawn) | – | > 100 µM | – | > 100 µM | – | > 100 µM | – | > 100 µM | – | > 100 µM | – | > 100 µM | – | – | > 100 µM | > 100 µM | – | > 100 µM | – | – |
| N=C(N)SCc1ccc([N+](=O)[O-])cc1[N+](=O)[O-] | 19.2 µM | > 100 µM | 13.9 µM | 69.8 µM | 6.01 µM | 18.7 µM | 12.8 µM | 29.4 µM | 14.3 µM | 75.7 µM | 2.9 µM | 7.96 µM | – | – | 25.7 µM | 18.7 µM | 25.3 µM | 62.4 µM | 11 µM | 3.48 µM |
